Biological target: T1, RORγ (Mus musculus, UniProt P51450)
T1 construct: mRORγ (Pro-261-end); expressed in transfected cells
T1 sequence (P51450 261-516 limits assumed): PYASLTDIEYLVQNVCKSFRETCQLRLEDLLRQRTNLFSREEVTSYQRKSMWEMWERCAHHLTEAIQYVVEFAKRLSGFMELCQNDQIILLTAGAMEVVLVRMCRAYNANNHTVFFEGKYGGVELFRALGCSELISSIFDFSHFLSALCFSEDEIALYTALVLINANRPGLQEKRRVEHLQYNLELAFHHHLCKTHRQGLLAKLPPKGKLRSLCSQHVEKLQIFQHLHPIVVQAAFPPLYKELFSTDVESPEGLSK
Assay: Gal4-RORγ-LBD UAS-luciferase reporter assay in TRex-CHO-K1 cells (doxycycline-stimulated)
Assay type: cell-based
Details: IC50 (μM) (N=4) RORγ, individual controls of library 1295, second confirmatory dose response, Figure 2
Text: (§1) The Gal4-DBD-ROR-LBD fusion proteins were subcloned in the pcDNA4/TO expression vector (Thermo Scientific) and transfected into TRex-CHO-K1 cells (Thermo Scientific) for tetracycline-controlled expression of the corresponding ROR proteins. Transfected cells were selected with hygromycin and Zeocin and individual clones for each of the Gal4-RORγ, Gal4-RORα, and Gal4-RORβ cell lines were isolated using a standard serial dilution protocol. Clones with the highest doxycycline-dependent stimulation of luciferase activity were selected for all functional experiments.
(§2) For screening FIU libraries, cells were resuspended in Ham’s F-12 assay medium containing 2% charcoal-treated FBS and no selection drugs. […] Cells were allowed to attach for 2 h, followed by compound treatment and stimulation with 20 ng/mL doxycycline for an additional 16–20 h. Appropriate solvent controls, negative controls with no doxycycline, and blanks with no cells were included in every plate. Prior to measuring luciferase activity, 6 µL of 0.15 mg/mL resazurin (Cayman Chemical) in PBS were added and cells were incubated for 1 h at 37 °C. Fluorescence intensity was detected at 545 nm excitation/590 nm emission using a CLARIOstar reader (BMGLabtech) as a measure of cell viability, to identify any potential cytotoxic effect of test compounds and mixtures.
(§3) Luminescence was normalized by the fluorescence intensity and the percentage of inhibition was calculated with respect to control cells stimulated with doxycycline in the presence of solvent control (0.1% DMF). All primary screens with individual compounds were performed in triplicate with a final concentration of 5 µg/mL. […] IC50 values were calculated using GraphPrism (GraphPad software).

| SMILES | IC50 [µM] |
| --- | --- |
| CC1CCC(CN2C(NC(=O)Cc3ccccc3)=NC[C@@H]2Cc2ccccc2)CC1 (stereo partly drawn) [1295.269] | 5.8 ± 0.6 |

Same assay, conditions: T-REx-CHO-K1, read-out: % Inhibition RORγ 5 μg/ml

| SMILES | inhibition at 5 µg/mL [%] |
| --- | --- |
| CC1CCC(CN2C(NC(=O)Cc3ccccc3)=NC[C@@H]2Cc2ccccc2)CC1 (stereo partly drawn) [1295.269] | 104 |

Same assay, conditions: individual controls 1295.201-307, 5 μg/ml, triplicate

| SMILES | % Inhibition RORγ 5 μg/ml [%] |
| --- | --- |
| CC(C)C[C@@H]1CN=C(NC(=O)Cc2ccccc2)N1CCc1ccccc1 [1295.211] | 38.8 |
| CCC(C)CN1C(NC(=O)Cc2ccccc2)=NCC1Cc1ccccc1 (mixture of isomers) [1295.256] | -8.1 |
| CC(C)(C)[C@H]1CN=C(NC(=O)Cc2ccccc2)N1CCc1ccccc1 [1295.231] | -31.5 |
| CCC(CN1C(NC(=O)Cc2ccccc2)=NCC1Cc1ccccc1)c1ccccc1 (mixture of isomers) [1295.235] | 35.8 |
| CC(C)CCC(=O)NC1=NC[C@H](Cc2ccccc2)N1CCc1ccccc1 [1295.297] | 62.2 |
| CCCCCCC(=O)NC1=NC[C@H](Cc2ccccc2)N1CCc1ccccc1 [1295.294] | 44.3 |
| O=C(Cc1ccccc1)NC1=NC[C@@H](Cc2ccccc2)N1CCc1ccccc1 [1295.209] | 46.8 |
| CC(CCN1C(NC(=O)Cc2ccccc2)=NCC1Cc1ccccc1)c1ccccc1 (mixture of isomers) [1295.236] | 26.8 |
| O=C(CCC1CCCC1)NC1=NC[C@H](Cc2ccccc2)N1CCc1ccccc1 [1295.304] | 45.5 |
| O=C(Cc1ccccc1)NC1=NCCN1CCc1ccccc1 [1295.203] | -29.5 |
| COc1cccc(CC(=O)NC2=NC[C@H](Cc3ccccc3)N2CCc2ccccc2)c1 [1295.279] | 75.2 |
| COc1ccc(CCN2C(NC(=O)Cc3ccccc3)=NC[C@@H]2Cc2ccccc2)cc1 [1295.243] | 27.2 |
| CCC[C@H]1CN=C(NC(=O)Cc2ccccc2)N1CCc1ccccc1 [1295.215] | 31.5 |
| O=C(Cc1ccccc1)NC1=NC[C@H](Cc2ccccc2)N1CCc1ccccc1 [1295.250] | 9.9 |
| CC(C)C[C@H]1CN=C(NC(=O)Cc2ccccc2)N1CCc1ccccc1 [1295.205] | 54.1 |
| O=C(Cc1ccc(-c2ccccc2)cc1)NC1=NC[C@H](Cc2ccccc2)N1CCc1ccccc1 [1295.285] | 11.1 |
| O=C(Cc1ccccc1)NC1=NC[C@H](Cc2ccccc2)N1CCc1ccccc1 [1295.202] | 0.0 |

Biological target: T2, RORα (Homo sapiens, UniProt P35398)
T2 construct: hRORα (Pro-211-end); expressed in transfected cells
T2 sequence (P35398 266-523): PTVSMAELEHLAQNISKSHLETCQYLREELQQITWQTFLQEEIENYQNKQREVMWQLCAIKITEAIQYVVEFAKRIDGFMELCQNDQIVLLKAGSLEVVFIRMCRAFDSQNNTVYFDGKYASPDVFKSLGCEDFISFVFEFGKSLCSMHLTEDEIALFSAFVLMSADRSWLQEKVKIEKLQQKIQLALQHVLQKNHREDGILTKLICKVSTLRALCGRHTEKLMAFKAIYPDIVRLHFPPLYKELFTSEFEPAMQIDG
Assay: Gal4-RORα-LBD UAS-luciferase reporter assay in TRex-CHO-K1 cells (doxycycline-stimulated)
Assay type: cell-based
Details: IC50 (μM) (N=4) RORα, individual controls of library 1295, second confirmatory dose response, Figure 2
Text: as §1, §2, §3

| SMILES | IC50 [µM] |
| --- | --- |
| CC1CCC(CN2C(NC(=O)Cc3ccccc3)=NC[C@@H]2Cc2ccccc2)CC1 (stereo partly drawn) [1295.269] | 9 ± 0.3 |

Biological target: T3, RORβ (Rattus norvegicus, UniProt P45446)
T3 construct: rRORβ (Pro 205-end); expressed in transfected cells
T3 sequence (P45446 205-459 isoform P45446-1): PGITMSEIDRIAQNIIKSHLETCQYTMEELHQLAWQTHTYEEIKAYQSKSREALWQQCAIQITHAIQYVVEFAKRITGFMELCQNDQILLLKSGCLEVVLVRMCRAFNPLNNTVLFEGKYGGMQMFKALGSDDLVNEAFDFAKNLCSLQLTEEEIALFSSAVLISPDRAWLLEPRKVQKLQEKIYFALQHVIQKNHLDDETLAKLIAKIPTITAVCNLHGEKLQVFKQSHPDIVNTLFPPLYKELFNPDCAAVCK
Assay: Gal4-RORβ-LBD UAS-luciferase reporter assay in TRex-CHO-K1 cells (doxycycline-stimulated)
Assay type: cell-based
Details: IC50 (μM) (N=4) RORβ, individual controls of library 1295, second confirmatory dose response, Figure 2
Text: To investigate the transcriptional activity of all three RORs, we generated stable cell lines expressing an UAS-driven luciferase reporter together with the corresponding Gal4-DNA binding domain fused to the ligand binding domains (LBDs) of mRORγ (Pro-261-end), hRORα (Pro-211-end), or rRORβ (Pro 205-end). The Gal4-DBD-ROR-LBD fusion proteins were subcloned in the pcDNA4/TO expression vector (Thermo Scientific) and transfected into TRex-CHO-K1 cells (Thermo Scientific) for tetracycline-controlled expression of the corresponding ROR proteins. Transfected cells were selected with hygromycin and Zeocin and individual clones for each of the Gal4-RORγ, Gal4-RORα, and Gal4-RORβ cell lines were isolated using a standard serial dilution protocol. Clones with the highest doxycycline-dependent stimulation of luciferase activity were selected for all functional experiments. All cell lines were maintained in complete Ham’s F12 medium containing 10% fetal bovine serum (FBS), 10 µg/mL blasticidine, 100 µg/mL hygromycin, and 100 µg/mL Zeocin and were used within 2 months of culture without any loss of doxycycline-dependent stimulation of luciferase activity.
For screening FIU libraries, cells were resuspended in Ham’s F-12 assay medium containing 2% charcoal-treated FBS and no selection drugs. Ten thousand cells per well were seeded in 30 µL of assay medium in 384 white plates with clear bottom (Greiner). Cells were allowed to attach for 2 h, followed by compound treatment and stimulation with 20 ng/mL doxycycline for an additional 16–20 h. Appropriate solvent controls, negative controls with no doxycycline, and blanks with no cells were included in every plate. Prior to measuring luciferase activity, 6 µL of 0.15 mg/mL resazurin (Cayman Chemical) in PBS were added and cells were incubated for 1 h at 37 °C. Fluorescence intensity was detected at 545 nm excitation/590 nm emission using a CLARIOstar reader (BMGLabtech) as a measure of cell viability, to identify any potential cytotoxic effect of test compounds and mixtures. Following the resazurin assay, the medium was removed and 20 µL of BriteLite-Plus luciferase reagent (Perking Elmer) were added; luminescence was measured in a CLARIOstar reader using a 384 aperture spoon and a 0.1 sec measuring time interval.
as §3

| SMILES | IC50 [µM] |
| --- | --- |
| CC1CCC(CN2C(NC(=O)Cc3ccccc3)=NC[C@@H]2Cc2ccccc2)CC1 (stereo partly drawn) [1295.269] | 9.3 ± 0.8 |

Biological target: T1, RORγ
Assay: Gal4-RORγ-LBD UAS-luciferase reporter assay in TRex-CHO-K1 cells (doxycycline-stimulated)
Assay type: cell-based
Details: library 2520, RORγ cells

| SMILES | % Inhibition at 4 μM (N=3) [%] |
| --- | --- |
| CCOc1ccc(CC2CN=C(NC(=O)C(CC)c3ccccc3)N2CCC(C)c2ccccc2)cc1 (mixture of isomers) [2520.43] | -5.4 |
| COc1ccc(CC(=O)NC2=NCC(Cc3ccc4ccccc4c3)N2CCC2CC3CCC2C3)cc1 (mixture of isomers) [2520.02] | -33.8 |
| CCC(C)C1CN=C(NC(=O)C(C)C)N1CCC1CC2CCC1C2 (mixture of isomers) [2520.20] | 13.3 |
| COc1ccc(CC(=O)NC2=NC[C@H](Cc3ccc4ccccc4c3)N2CC2CCCCC2)cc1 [2520.06] | -56.4 |
| CC(C)C(=O)NC1=NCC(Cc2ccccc2)N1CCC1CC2CCC1C2 (mixture of isomers) [2520.32] | 36.0 |
| CC[C@H](C)[C@H]1CN=C(NC(=O)Cc2ccc(OC)cc2)N1CC1CCCCC1 [2520.18] | 26.2 |
| CCOc1ccc(CC2CN=C(NC(=O)Cc3ccc(OC)cc3)N2CCC2CC3CCC2C3)cc1 (mixture of isomers) [2520.38] | -22.6 |
| CC(C)C(=O)NC1=NC[C@H](Cc2ccc3ccccc3c2)N1CC1CCCCC1 [2520.12] | 30.4 |
| CCC(C(=O)NC1=NCC(Cc2ccccc2)N1CCC1CC2CCC1C2)c1ccccc1 (mixture of isomers) [2520.35] | -21.7 |
| CCC(C(=O)NC1=NCC(C(C)CC)N1CCC1CC2CCC1C2)c1ccccc1 (mixture of isomers) [2520.23] | 35.9 |
| COc1ccc(CC(=O)NC2=NC[C@H](Cc3ccccc3)N2CC2CCCCC2)cc1 [2520.30] | -4.8 |
| CCOc1ccc(CC2CN=C(NC(=O)C(C)C)N2CCC2CC3CCC2C3)cc1 (mixture of isomers) [2520.44] | -20.0 |
| CC(C)C(=O)NC1=NCC(Cc2ccc3ccccc3c2)N1CCC(C)c1ccccc1 (mixture of isomers) [2520.04] | -40.8 |
| CCC(C(=O)NC1=NCC(Cc2ccc3ccccc3c2)N1CCC(C)c1ccccc1)c1ccccc1 (mixture of isomers) [2520.07] | -32.2 |
| CCC(C(=O)NC1=NCC(Cc2ccc3ccccc3c2)N1CC1CCCCC1)c1ccccc1 (mixture of isomers) [2520.03] | -31.8 |
| COc1ccc(CC(=O)NC2=NCC(Cc3ccccc3)N2CCC2CC3CCC2C3)cc1 (mixture of isomers) [2520.26] | 40.8 |
| CCC(C)C1CN=C(NC(=O)Cc2ccc(OC)cc2)N1CCC1CC2CCC1C2 (mixture of isomers) [2520.14] | 43.0 |
| COc1ccc(CC(=O)NC2=NCC(Cc3ccc4ccccc4c3)N2CCC(C)c2ccccc2)cc1 (mixture of isomers) [2520.10] | -7.3 |
| CCOc1ccc(CC2CN=C(NC(=O)C(C)C)N2CCC(C)c2ccccc2)cc1 (mixture of isomers) [2520.40] | -8.1 |
| COc1ccc(CC(=O)NC2=NCC(Cc3ccccc3)N2CCC(C)c2ccccc2)cc1 (mixture of isomers) [2520.34] | 34.4 |
| CC(C)C(=O)NC1=NC[C@H](Cc2ccccc2)N1CC1CCCCC1 [2520.36] | -5.4 |
